Experimental data: paper PMC11790914, “Chemogenomics for steroid hormone receptors (NR3)” (Communications Chemistry, 2025)
Where “and” joins values, the source holds several entries; their conditions need not be identical. Equal entries are not always repeated.

Experiments:
GSK3B = target: T1, GSK3B (Homo sapiens, UniProt P49841); assay: Liability panel screening by DSF: GSK3B; assay type: binding; conditions: DSF, 20 µM, n=2; read-out: Mean ΔTM GSK3B
T1 construct: made in house

[1] = test system: NF-κB activity in HEK293 NF-κB reporter cells; assay: NF-kB activity assay (GFP reporter, ionomycin/PMA); assay type: cell-based; conditions: n=3
How it was run: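 HEK293 NF-κB GFP reporter cells given compound in 0.1% DMSO for 4 h, then stimulated with ionomycin 100 ng/mL plus PMA 10 ng/mL. Imaged every 90 min over 24 h; GFP-positive cell count normalized to confluence, three independent biological replicates.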

AURKA = target: T2, AURKA (Homo sapiens, UniProt O14965); assay: Liability panel screening by DSF: AURKA; assay type: binding; conditions: DSF, 20 µM, n=2; read-out: Mean ΔTM AURKA
T2 construct: made in house
T2 sequence (O14965 1-403): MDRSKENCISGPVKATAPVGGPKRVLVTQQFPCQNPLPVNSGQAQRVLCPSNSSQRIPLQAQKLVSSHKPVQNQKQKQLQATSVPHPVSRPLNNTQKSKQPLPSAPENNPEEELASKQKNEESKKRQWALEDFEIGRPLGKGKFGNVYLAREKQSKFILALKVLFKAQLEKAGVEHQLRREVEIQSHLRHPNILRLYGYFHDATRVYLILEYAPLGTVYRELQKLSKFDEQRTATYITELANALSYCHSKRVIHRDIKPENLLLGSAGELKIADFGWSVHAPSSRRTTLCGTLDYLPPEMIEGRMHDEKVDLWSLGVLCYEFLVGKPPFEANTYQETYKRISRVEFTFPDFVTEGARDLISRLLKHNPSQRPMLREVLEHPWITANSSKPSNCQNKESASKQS
Description: (§1) Reference ligands are listed in the methods section.
(§2) In-house produced recombinantly expressed proteins[62] of the liability panel targets were diluted in a buffer containing 10 mM HEPES (pH 7.5) and 500 mM NaCl to a concentration of 2 µM. SYPRO Orange (Invitrogen, Carlsbad, California, USA; #S6650) as a fluorescence probe was added at a 1:1000 dilution to the proteins. […] Temperature-dependent unfolding profiles were measured on a QuantStudio™ 5 real-time PCR machine (Thermo Fisher Scientific, Waltham, Massachusetts, USA; #A28140). […] The temperature was increased 3 °C per minute to a maximum temperature of 85 °C. Experiments were run as technical duplicates. […] Data were analyzed with the internal Thermal Shift Software (version 1.4, Thermo Fisher Scientific) using the Boltzmann equitation to determine the inflection point of the transition curve. Differences in melting temperature are given as ∆Tm in K. […]
(§3) scanning fluorimetry (DSF).
(§4) a concentration of 20 µM.

HEK293T cells [2] = assay: Cytotoxicity: apoptosis induction (caspase-3/7 DEVD fluorogenic DNA dye); conditions: 1 µM; HEK293T, 24 h; apoptotic cell count normalized to 0.1% DMSO; single replicates
MAPK1 = target: T3, MAPK1 (Homo sapiens, UniProt P28482); assay: Liability panel screening by DSF: MAPK1; assay type: binding; conditions: DSF, 20 µM, n=2; read-out: Mean ΔTM MAPK1
T3 construct: made in house
T3 sequence (P28482 whole entry, species assumed): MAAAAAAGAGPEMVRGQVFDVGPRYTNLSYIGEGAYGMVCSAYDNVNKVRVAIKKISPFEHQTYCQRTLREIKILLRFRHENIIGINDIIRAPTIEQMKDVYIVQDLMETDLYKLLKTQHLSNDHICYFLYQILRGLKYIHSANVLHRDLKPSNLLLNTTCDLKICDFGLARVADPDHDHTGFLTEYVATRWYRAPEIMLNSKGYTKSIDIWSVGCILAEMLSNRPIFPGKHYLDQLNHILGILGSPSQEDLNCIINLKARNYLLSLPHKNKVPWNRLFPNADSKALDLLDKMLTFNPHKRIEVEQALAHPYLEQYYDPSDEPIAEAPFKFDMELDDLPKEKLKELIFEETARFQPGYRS
Description: as §1, §2, §3, §4

CSNK1D = target: T4, CSNK1D (Homo sapiens, UniProt P48730); assay: Liability panel screening by DSF: CSNK1D; assay type: binding; conditions: DSF, 20 µM, n=2; read-out: Mean ΔTM CSNK1D
T4 construct: made in house
T4 sequence (P48730 whole entry, species assumed): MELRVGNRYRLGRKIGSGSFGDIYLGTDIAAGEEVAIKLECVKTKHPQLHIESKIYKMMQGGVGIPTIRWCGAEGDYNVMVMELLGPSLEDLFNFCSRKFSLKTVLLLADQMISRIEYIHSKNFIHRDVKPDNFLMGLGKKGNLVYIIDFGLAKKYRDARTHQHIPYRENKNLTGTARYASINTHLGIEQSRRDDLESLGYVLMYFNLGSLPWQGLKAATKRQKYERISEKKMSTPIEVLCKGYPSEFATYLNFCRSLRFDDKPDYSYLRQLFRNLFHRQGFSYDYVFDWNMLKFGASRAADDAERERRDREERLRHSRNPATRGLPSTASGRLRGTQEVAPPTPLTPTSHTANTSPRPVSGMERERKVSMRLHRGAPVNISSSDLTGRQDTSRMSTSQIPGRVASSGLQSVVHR
Description: as §1, §2, §3, §4

HEK293T cells [3] = assay: Cytotoxicity: growth-rate (change in confluence over 24 h); conditions: 1 µM, normalized to 0.1% DMSO control, single replicates (n=1...)
Description: Cells were incubated with the test compounds at the indicated concentrations solubilized with 0.1% DMSO for 24 h. Growth-rate was determined based on the change in confluence over 24 h normalized to the change in confluence of cells treated with the 0.1% DMSO control (n = 10). Metabolic activity was determined with a water-soluble tetrazolium-8 (WST-8) assay (n = 8) after 24 h treatment. Apoptotic cells were detected with a fluorogenic DNA dye coupled to the caspase-3/7 recognition sequence (DEVD) after 24 h treatment and the apoptotic cell count was normalized to 0.1% DMSO treated cells (n = 6).
HEK293T cells (German Collection of Microorganisms and Cell Culture GmbH, DSMZ; #ACC305) were cultured in DMEM high glucose, supplemented with 10% fetal calf serum (FCS), sodium pyruvate (1 mM), penicillin (100 µ/mL) and streptomycin (100 µg/mL) at 37 °C and 5% (v/v) CO2, and seeded in pre-coated (10 µg/mL collagen G solution (Merck KgaA; #L7213) for 30 min at 37 °C) 96-well plates (2 × 10^5 cells per well). After 24 h, the cells were treated with the respective NR3 CG compound candidate at the recommended concentration, bexarotene (100 µM) or doxorubicin (30 µM) as positive controls in DMEM high glucose supplemented with 0.1% FCS, penicillin (100 µ/mL), streptomycin (100 µg/mL) and 0.1% DMSO, or 0.1% DMSO alone as an untreated control. Each sample was prepared in at least four biologically independent replicates. […] Thereafter, the medium was aspirated and the cells were incubated for 3 h with 90 µL DMEM high glucose supplemented with 0.2% FCS, penicillin (100 µ/mL) and streptomycin (100 µg/mL) and additionally containing 10 µL Cell Counting Kit 8 solution (CCK-8; MedChemExpress, Monmouth Junction, New York, USA; #HY-K0301), and absorbance was measured at 1 h, 2 h and 3 h of incubation at 450 nm on a Tecan Spark Cyto to assess metabolic activity of the cells. Before drug administration, after the first medium exchange, 24 h after drug administration, and after fluorescence imaging cell confluence was assessed using the Tecan Spark Cyto, to account for changes in cell confluence due to drug administration and cell handling. Compound effects on cell confluence, apoptosis, metabolic activity and necrosis were normalized to the vehicle control of each biological replicate individually.

Gal4-VP16 = assay type: cell-based; conditions: 1 µM; vs. DMSO ctrl; single replicates n=1-3
HEK293T cells [4] = assay: Cytotoxicity: necrosis induction (red fluorescent dye for permeable plasma membranes); assay type: cell-based; conditions: 1 µM, 24 h, necrotic cell count normalized to 0.1% DMSO, single replicates;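 note: compounds applied in DMEM high glucose with 0.1% FCS and 0.1% DMSO, necrotic HEK293T cells counted by red staining of cells whose plasma membranes had become permeable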
ABL1 = target: T5, ABL1 (Homo sapiens, UniProt P00519); assay: Liability panel screening by DSF: ABL1; assay type: binding; conditions: DSF, 20 µM, n=2; read-out: Mean ΔTM ABL1
T5 construct: made in house
T5 sequence (P00519 whole entry, species assumed): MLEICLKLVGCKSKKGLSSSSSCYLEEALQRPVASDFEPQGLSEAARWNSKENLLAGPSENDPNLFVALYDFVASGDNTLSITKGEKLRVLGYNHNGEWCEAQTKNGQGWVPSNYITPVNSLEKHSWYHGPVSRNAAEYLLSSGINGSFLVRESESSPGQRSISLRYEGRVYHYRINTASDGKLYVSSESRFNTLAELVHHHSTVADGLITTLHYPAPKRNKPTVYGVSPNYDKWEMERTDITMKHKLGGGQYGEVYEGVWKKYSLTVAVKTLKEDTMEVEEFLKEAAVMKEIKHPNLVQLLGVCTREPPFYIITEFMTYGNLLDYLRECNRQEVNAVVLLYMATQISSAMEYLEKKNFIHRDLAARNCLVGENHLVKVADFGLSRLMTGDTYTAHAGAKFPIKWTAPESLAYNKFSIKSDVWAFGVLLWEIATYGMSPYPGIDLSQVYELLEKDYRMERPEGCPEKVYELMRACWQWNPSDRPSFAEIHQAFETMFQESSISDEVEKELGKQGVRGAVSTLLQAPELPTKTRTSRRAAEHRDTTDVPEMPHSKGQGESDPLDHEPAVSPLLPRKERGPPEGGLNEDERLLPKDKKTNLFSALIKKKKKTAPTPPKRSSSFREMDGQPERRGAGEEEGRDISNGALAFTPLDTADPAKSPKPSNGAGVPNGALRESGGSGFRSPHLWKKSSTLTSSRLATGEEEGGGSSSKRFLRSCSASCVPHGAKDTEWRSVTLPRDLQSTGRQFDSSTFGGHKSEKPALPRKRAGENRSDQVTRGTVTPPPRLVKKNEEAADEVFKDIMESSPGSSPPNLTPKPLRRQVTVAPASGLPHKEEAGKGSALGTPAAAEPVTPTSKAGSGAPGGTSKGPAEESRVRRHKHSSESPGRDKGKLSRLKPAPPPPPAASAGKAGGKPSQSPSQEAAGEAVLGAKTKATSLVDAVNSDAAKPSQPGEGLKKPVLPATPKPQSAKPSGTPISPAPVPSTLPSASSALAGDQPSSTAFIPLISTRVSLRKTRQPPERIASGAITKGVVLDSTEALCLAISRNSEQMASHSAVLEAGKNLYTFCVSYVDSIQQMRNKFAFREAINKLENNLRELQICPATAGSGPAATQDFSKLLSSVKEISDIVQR
Description: as §1, §2, §3, §4

TRIM24 = target: T6, TRIM24 (Homo sapiens, UniProt O15164); assay: Liability panel screening by DSF: TRIM24; assay type: binding; conditions: DSF, 20 µM, n=2; read-out: Mean ΔTM TRIM24
T6 construct: This panel comprised ten highly ligandable kinases and bromodomains; made in house
T6 sequence (O15164 899-1004 limits assumed): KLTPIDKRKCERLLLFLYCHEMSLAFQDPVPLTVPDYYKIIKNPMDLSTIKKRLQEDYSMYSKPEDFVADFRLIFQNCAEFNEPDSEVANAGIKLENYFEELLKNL
Description: as §1, §2, §3, §4

CDK2 = target: T7, CDK2 (Homo sapiens, UniProt P24941); assay: Liability panel screening by DSF: CDK2; assay type: binding; conditions: DSF, 20 µM, n=2; read-out: Mean ΔTM CDK2
T7 construct: made in house
Description: as §1, §2, §3, §4

[5] = test system: ATF6 activity in Hela ATF6 reporter cells; assay: Endoplasmic reticulum stress assay (ATF6 Renilla luciferase reporter, tunicamycin); assay type: cell-based; conditions: Homo sapiens, HeLa, 1 µM, single replicates n=1 to n=5; read-out: ER stress [rel. ATF6 activity]
How it was run: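 HeLa ATF6 Renilla reporter cells were pretreated 4 h with compounds in 0.1% DMSO, then stimulated with tunicamycin (100 ng/mL) for 18 h. Renilla luminescence (DualGlo) was normalized to 0.1% DMSO control; five independent experiments.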

BRD4 = target: T8, BRD4 (Homo sapiens, UniProt O60885); assay: Liability panel screening by DSF: BRD4; assay type: binding; conditions: DSF, 20 µM, n=2; read-out: Mean ΔTM BRD4
T8 construct: This panel comprised ten highly ligandable kinases and bromodomains; made in house
Description: as §1, §2, §3, §4

HEK293T cells [6] = assay: Cytotoxicity: metabolic activity (WST-8 / CCK-8 assay); conditions: 1 µM; HEK293T, 24 h; WST-8; normalized to 0.1% DMSO; single replicates
BRPF1 = target: T9, BRPF1 (Homo sapiens, UniProt P55201); assay: Liability panel screening by DSF: BRPF1; assay type: binding; conditions: DSF, 20 µM, n=2; read-out: Mean ΔTM BRPF1
T9 construct: This panel comprised ten highly ligandable kinases and bromodomains; made in house
T9 sequence (P55201 628-732 limits assumed): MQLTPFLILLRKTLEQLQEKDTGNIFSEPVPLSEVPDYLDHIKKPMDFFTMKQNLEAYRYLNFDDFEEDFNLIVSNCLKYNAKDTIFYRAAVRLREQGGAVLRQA
Description: as §1, §2, §3, §4

FGFR3 = target: T10, FGFR3 (Homo sapiens, UniProt P22607); assay: Liability panel screening by DSF: FGFR3; assay type: binding; conditions: DSF, 20 µM, n=2; read-out: Mean ΔTM FGFR3
T10 construct: made in house
T10 sequence (P22607 23-806, species assumed): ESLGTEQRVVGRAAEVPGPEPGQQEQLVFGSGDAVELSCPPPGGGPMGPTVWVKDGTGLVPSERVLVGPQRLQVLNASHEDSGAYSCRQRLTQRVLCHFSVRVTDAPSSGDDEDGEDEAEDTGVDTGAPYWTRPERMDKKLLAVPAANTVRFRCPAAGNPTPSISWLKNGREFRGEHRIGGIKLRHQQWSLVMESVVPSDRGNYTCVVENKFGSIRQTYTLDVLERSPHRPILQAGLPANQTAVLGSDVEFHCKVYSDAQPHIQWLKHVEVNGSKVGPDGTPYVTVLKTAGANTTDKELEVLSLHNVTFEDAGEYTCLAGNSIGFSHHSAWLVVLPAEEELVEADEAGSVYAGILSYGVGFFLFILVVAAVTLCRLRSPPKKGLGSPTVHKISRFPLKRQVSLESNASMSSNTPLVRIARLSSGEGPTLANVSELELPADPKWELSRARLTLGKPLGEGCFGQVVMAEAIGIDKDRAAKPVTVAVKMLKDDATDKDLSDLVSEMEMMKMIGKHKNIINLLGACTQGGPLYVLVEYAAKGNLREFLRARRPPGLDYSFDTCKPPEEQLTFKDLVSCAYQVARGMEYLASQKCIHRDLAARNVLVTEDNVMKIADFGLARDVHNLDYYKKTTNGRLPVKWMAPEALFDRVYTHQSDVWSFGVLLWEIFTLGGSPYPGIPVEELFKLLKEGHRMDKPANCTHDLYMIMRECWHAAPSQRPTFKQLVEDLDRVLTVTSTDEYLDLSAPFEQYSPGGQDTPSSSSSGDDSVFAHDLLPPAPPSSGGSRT
Description: as §1, §2, §3, §4

T1 sequence (P49841 whole entry, species assumed): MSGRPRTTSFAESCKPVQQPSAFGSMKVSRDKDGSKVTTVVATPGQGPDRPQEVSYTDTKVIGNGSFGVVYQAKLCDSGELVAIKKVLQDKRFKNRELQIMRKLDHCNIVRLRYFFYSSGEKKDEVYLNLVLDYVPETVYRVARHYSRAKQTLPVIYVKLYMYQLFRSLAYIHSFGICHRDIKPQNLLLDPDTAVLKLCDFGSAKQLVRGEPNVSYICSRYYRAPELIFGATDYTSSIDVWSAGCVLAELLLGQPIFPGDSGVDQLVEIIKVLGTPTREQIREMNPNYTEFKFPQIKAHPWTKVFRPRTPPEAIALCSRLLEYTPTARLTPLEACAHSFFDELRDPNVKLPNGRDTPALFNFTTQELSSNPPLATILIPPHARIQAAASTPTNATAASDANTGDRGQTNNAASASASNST

CC(=O)O[C@]1(C(C)=O)CC[C@H]2[C@@H]3CCC4=CC(=O)CCC4=C3[C@@H](c3ccc(N(C)C)cc3)C[C@@]21C [Ulipristal acetate]
ΔTm at 20 µM (GSK3B): -0.83 °C
Mean NFκB response ([1]; 1 µM, 1,5 h): 2644.31 GFP+-cells/confluence ∙ 1000
Mean NFκB response ([1]; 1 µM, 4,5 h): 3036.67 GFP+-cells/confluence ∙ 1000
Mean NFκB response ([1]; 1 µM, 7,5 h): 6043.33 GFP+-cells/confluence ∙ 1000
Mean NFκB response ([1]; 1 µM, 10,5 h): 16570.00 GFP+-cells/confluence ∙ 1000
Mean NFκB response ([1]; 1 µM, 13,5 h): 25096.67 GFP+-cells/confluence ∙ 1000
Mean NFκB response ([1]; 1 µM, 16,6 h): 31636.67 GFP+-cells/confluence ∙ 1000
Mean NFκB response ([1]; 1 µM, 19,5 h): 36313.33 GFP+-cells/confluence ∙ 1000
Mean NFκB response ([1]; 1 µM, 22,5 h): 39910.00 GFP+-cells/confluence ∙ 1000
Mean NFκB response ([1]; 1 µM, 3 h): 2710.00 GFP+-cells/confluence ∙ 1000
Mean NFκB response ([1]; 1 µM, 6 h): 3846.67 GFP+-cells/confluence ∙ 1000
Mean NFκB response ([1]; 1 µM, 9 h): 10723.33 GFP+-cells/confluence ∙ 1000
Mean NFκB response ([1]; 1 µM, 12 h): 21213.33 GFP+-cells/confluence ∙ 1000
Mean NFκB response ([1]; 1 µM, 15 h): 28280.00 GFP+-cells/confluence ∙ 1000
Mean NFκB response ([1]; 1 µM, 18 h): 34176.67 GFP+-cells/confluence ∙ 1000
Mean NFκB response ([1]; 1 µM, 21 h): 38276.67 GFP+-cells/confluence ∙ 1000
Mean NFκB response ([1]; 1 µM, 24 h): 41050.00 GFP+-cells/confluence ∙ 1000
ΔTm at 20 µM (AURKA): -1.14 °C
Apoptosis induction [AI] (HEK293T cells [2]): 0.98 (2×) and 0.83 and 1.37 and 1.27 and 0.92
ΔTm at 20 µM (MAPK1): -0.0546 °C
ΔTm at 20 µM (CSNK1D): 0.22 °C
Growth rate [GR] (HEK293T cells [3]): 0.78 and 1.52 and 1.08 and 1.00 (2×) and 1.04 and 0.73 and 0.60 and 1.80 and 3.99
VP16 control [fold reporter gene activity] (Gal4-VP16): 1.05 fold reporter gene activity and 1.09 fold reporter gene activity and 1.04 fold reporter gene activity
Necrosis induction [NI] (HEK293T cells [4]): 1.05 and 1.11 and 0.95 and 0.92
ΔTm at 20 µM (ABL1): 0.29 °C
ΔTm at 20 µM (TRIM24): -1.79 °C
ΔTm at 20 µM (CDK2): -0.32 °C
activity at 1 µM [5]: 102%
ΔTm at 20 µM (BRD4): -2.72 °C
Metabolic activity [MA] (HEK293T cells [6]): 1.04 and 0.97 and 0.99 (2×) and 1.03 (2×) and 0.96 and 1.08
ΔTm at 20 µM (BRPF1): -2.65 °C
ΔTm at 20 µM (FGFR3): -0.057 °C
